Results: ChEMBL document CHEMBL5321231, “Synthesis, antiviral activity, and computational study of β-d-xylofuranosyl nucleoside phosphonates” (Eur J Med Chem, 2023)
Calls of active or inactive are those of the source. The rule behind the calls is not given here.

Columns and labels:
[1] = Cytotoxicity against African green monkey Vero 76 cells assessed as reduction in cell viability by neutral red dye based spectrophotometric analysis; type: toxicity; details: chlorocebus sabaeus
Measles morbillivirus [2] = assay: Antiviral activity against MeV CC strain infected in African green monkey Vero 76 cells assessed as reduction in virus induced cytopathic effect incubated for 6 days by visual analysis; type: functional, organism-based; details: Vero 76, 144 h
Measles morbillivirus [3] = assay: Antiviral activity against MeV CC strain infected in African green monkey Vero 76 cells assessed as reduction in virus induced cytopathic effect incubated for 6 days by neutral red dye based spectrophotometric analysis; type: functional, organism-based; details: Vero 76, 144 h
[4] = Cytotoxicity against African green monkey Vero 76 cells assessed as reduction in cell viability by visual analysis; type: toxicity, cell-based; details: chlorocebus sabaeus
[5] = Selectivity index, ratio of CC50 for cytotoxicity against African green monkey Vero 76 cells to EC50 for antiviral activity against MeV CC strain infected in African green monkey Vero 76 cells by visual analysis; type: toxicity, cell-based; details: read-out: Ratio CC50/EC50
[6] = Selectivity index, ratio of CC50 for cytotoxicity against African green monkey Vero 76 cells to EC50 for antiviral activity against MeV CC strain infected in African green monkey Vero 76 cells by neutral red dye based spectrophotometric analysis; type: toxicity, cell-based; details: read-out: Ratio CC50/EC50
dengue virus type 2 [7] = assay: Antiviral activity against DENV-2 New Guinea C infected in human Huh-7 cells assessed as reduction in virus induced cytopathic effect incubated for 6 days by visual analysis; type: functional, organism-based; details: Huh-7, 144 h
dengue virus type 2 [8] = assay: Antiviral activity against DENV-2 New Guinea C infected in human Huh-7 cells assessed as reduction in virus induced cytopathic effect incubated for 6 days by neutral red dye based spectrophotometric analysis; type: functional, organism-based; details: Huh-7, 144 h
[9] = Cytotoxicity against human Huh-7 cells assessed as reduction in cell viability by visual analysis; type: toxicity, cell-based
enterovirus D68 [10] = assay: Antiviral activity against EV-68 US/KY/14-18953 infected in human RD cells assessed as reduction in virus induced cytopathic effect incubated for 3 days by visual analysis; type: functional, organism-based; details: Enterovirus D, US/KY/14-18953, RD, 72 h
enterovirus D68 [11] = assay: Antiviral activity against EV-68 US/KY/14-18953 infected in human RD cells assessed as reduction in virus induced cytopathic effect incubated for 3 days by neutral red dye based spectrophotometric analysis; type: functional, organism-based; details: Enterovirus D, US/KY/14-18953, RD, 72 h
[12] = Cytotoxicity against human RD cells assessed as reduction in cell viability by visual analysis; type: toxicity, cell-based
[13] = Selectivity index, ratio of CC50 for cytotoxicity against human RD cells to EC50 for antiviral activity against EV-68 US/KY/14-18953 infected in human RD cells by visual analysis; type: toxicity, cell-based; details: read-out: Ratio CC50/EC50
[14] = Selectivity index, ratio of CC50 for cytotoxicity against human RD cells to EC50 for antiviral activity against EV-68 US/KY/14-18953 infected in human RD cells by neutral red dye based spectrophotometric analysis; type: toxicity, cell-based; details: read-out: Ratio CC50/EC50
[15] = Cytotoxicity against human Huh-7 cells assessed as reduction in cell viability by neutral red dye based spectrophotometric analysis; type: toxicity
[16] = Cytotoxicity against human RD cells assessed as reduction in cell viability by neutral red dye based spectrophotometric analysis; type: toxicity
Influenza A virus = assay: Antiviral activity against influenza A virus H1N1 California/07/2009 infected in dog MDCK cells assessed as reduction in virus induced cytopathic effect incubated for 6 days by neutral red dye based spectrophotometric analysis; type: functional, organism-based; details: time 6.0 day
[17] = tested on: Middle East respiratory syndrome-related coronavirus; assay: Antiviral activity against MERS-CoV EMC strain infected in […] cells assessed as reduction in virus induced cytopathic effect incubated for 5 days by neutral red dye based spectrophotometric analysis; type: functional, organism-based; details: time 5.0 day
[18] = tested on: Respiratory syncytial virus; assay: Antiviral activity against RSV A2 strain infected in vervet monkey MA-104 cells assessed as reduction in virus induced cytopathic effect incubated for 6 days by neutral red dye based spectrophotometric analysis; type: functional, organism-based; details: time 6.0 day
Tacaribe virus = assay: Antiviral activity against TCRV TRVL 11573 strain infected in African green monkey Vero 76 cells assessed as reduction in virus induced cytopathic effect incubated for 7 days by neutral red dye based spectrophotometric analysis; type: functional, organism-based; details: Mammarenavirus tacaribeense, time 7.0 day
Herpesviridae sp. = assay: Antiviral activity against HSV; type: functional, organism-based
Hepatitis B virus = assay: Antiviral activity against Hepatitis B virus; type: functional, organism-based

Compound: Nc1ccn([C@@H]2O[C@H](CO)[C@@H](O)[C@H]2F)c(=O)n1
- CC50 [1]: > 100 µM
- EC50 (Measles morbillivirus [2]): 0.7 µM
- EC50 (Measles morbillivirus [3]): 0.95 µM
- CC50 [4]: > 100 µM
- selectivity ratio [5]: > 140
- selectivity ratio [6]: > 110

Compound: Nc1nc2c(ncn2[C@@H]2O[C@H](CO)[C@H](OCP(=O)(O)O)[C@H]2O)c(=O)[nH]1
- EC50 (dengue virus type 2 [7]): > 100 µM
- EC50 (dengue virus type 2 [8]): > 100 µM
- CC50 [9]: > 100 µM
- EC50 (enterovirus D68 [10]): 47 µM
- EC50 (enterovirus D68 [11]): 40 µM
- CC50 [12]: 73 µM
- CC50 [1]: > 100 µM
- EC50 (Measles morbillivirus [2]): > 100 µM
- EC50 (Measles morbillivirus [3]): > 100 µM
- CC50 [4]: > 100 µM
- selectivity ratio [13]: 1.6
- selectivity ratio [14]: > 2.5
- CC50 [15]: > 100 µM
- CC50 [16]: > 100 µM
- Activity (Influenza A virus): inactive
- Activity [17]: inactive
- Activity [18]: inactive
- Activity (Tacaribe virus): inactive
- Activity (Herpesviridae sp.): inactive
- Activity (Hepatitis B virus): inactive

Compound: CC(C)S(=O)(=O)n1c(N)nc2ccc(/C(=N/O)c3ccccc3)cc21 [ENVIROXIME]
- CC50 [12]: 10 µM
- CC50 [16]: 5.5 µM

Compound: Nc1ccn([C@@H]2O[C@H](CO)[C@H](OCP(=O)(O)O)[C@H]2O)c(=O)n1
- EC50 (dengue virus type 2 [7]): > 100 µM
- EC50 (dengue virus type 2 [8]): > 100 µM
- CC50 [9]: > 100 µM
- EC50 (enterovirus D68 [10]): > 100 µM
- EC50 (enterovirus D68 [11]): > 100 µM
- CC50 [12]: > 100 µM
- CC50 [1]: > 100 µM
- EC50 (Measles morbillivirus [2]): 72 µM
- EC50 (Measles morbillivirus [3]): 49 µM
- CC50 [4]: > 100 µM
- selectivity ratio [5]: > 1.4
- selectivity ratio [6]: > 2
- CC50 [15]: > 100 µM
- CC50 [16]: > 100 µM
- Activity (Influenza A virus): inactive
- Activity [17]: inactive
- Activity [18]: inactive
- Activity (Tacaribe virus): inactive
- Activity (Herpesviridae sp.): inactive
- Activity (Hepatitis B virus): inactive

Compound: Nc1ncnc2c1ncn2[C@@H]1O[C@H](CO)[C@H](OCP(=O)(O)O)[C@H]1O
- EC50 (dengue virus type 2 [7]): > 100 µM
- EC50 (dengue virus type 2 [8]): > 100 µM
- CC50 [9]: > 100 µM
- EC50 (enterovirus D68 [10]): 16 µM
- EC50 (enterovirus D68 [11]): 20 µM
- CC50 [12]: > 100 µM
- CC50 [1]: > 100 µM
- EC50 (Measles morbillivirus [2]): 12 µM
- EC50 (Measles morbillivirus [3]): 14 µM
- CC50 [4]: > 100 µM
- selectivity ratio [13]: > 6.3
- selectivity ratio [14]: > 5
- selectivity ratio [5]: > 8.3
- selectivity ratio [6]: > 7.1
- CC50 [15]: > 100 µM
- CC50 [16]: > 100 µM
- Activity (Influenza A virus): inactive
- Activity [17]: inactive
- Activity [18]: inactive
- Activity (Tacaribe virus): inactive
- Activity (Herpesviridae sp.): inactive
- Activity (Hepatitis B virus): inactive

Compound: O=c1ccn([C@@H]2O[C@H](CO)[C@H](OCP(=O)(O)O)[C@H]2O)c(=O)[nH]1
- EC50 (dengue virus type 2 [7]): > 100 µM
- EC50 (dengue virus type 2 [8]): > 84 µM
- CC50 [9]: > 100 µM
- EC50 (enterovirus D68 [10]): > 100 µM
- EC50 (enterovirus D68 [11]): > 100 µM
- CC50 [12]: > 100 µM
- CC50 [1]: > 100 µM
- EC50 (Measles morbillivirus [2]): 72 µM
- EC50 (Measles morbillivirus [3]): 82 µM
- CC50 [4]: > 100 µM
- selectivity ratio [5]: > 1.4
- selectivity ratio [6]: > 1.2
- CC50 [15]: > 100 µM
- CC50 [16]: > 100 µM
- Activity (Influenza A virus): inactive
- Activity [17]: inactive
- Activity [18]: inactive
- Activity (Tacaribe virus): inactive
- Activity (Herpesviridae sp.): inactive
- Activity (Hepatitis B virus): inactive

Compound: NC(=O)c1ncn([C@@H]2O[C@H](CO)[C@@H](O)[C@H]2O)n1
- Activity (Influenza A virus): inactive
- Activity [18]: inactive
- Activity (Tacaribe virus): inactive

Compound: O=c1[nH]cnc2c1ncn2[C@@H]1O[C@H](CO)[C@H](OCP(=O)(O)O)[C@H]1O
- EC50 (dengue virus type 2 [7]): > 100 µM
- EC50 (dengue virus type 2 [8]): > 100 µM
- CC50 [9]: > 100 µM
- EC50 (enterovirus D68 [10]): 46 µM
- EC50 (enterovirus D68 [11]): 89 µM
- CC50 [12]: > 100 µM
- CC50 [1]: > 100 µM
- EC50 (Measles morbillivirus [2]): > 100 µM
- EC50 (Measles morbillivirus [3]): > 100 µM
- CC50 [4]: > 100 µM
- selectivity ratio [13]: > 2.2
- selectivity ratio [14]: > 1.1
- CC50 [15]: > 100 µM
- CC50 [16]: > 100 µM
- Activity (Influenza A virus): inactive
- Activity [17]: inactive
- Activity [18]: inactive
- Activity (Tacaribe virus): inactive
- Activity (Herpesviridae sp.): inactive
- Activity (Hepatitis B virus): inactive
